Measurements taken from PubChem BioAssay (NCI).
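Assay format: 96-well plates, 48-hour exposure. GI50: concentration for 50% inhibition of growth. At the TGI there is no net growth.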

How the values were obtained:
Assay in all cases: NCI tumour cell line growth inhibition, 48 h
BT-549 breast = test system: BT-549 breast
OVCAR-5 ovarian = test system: OVCAR-5 ovarian
HL-60(TB) leukemia = test system: HL-60(TB) leukemia
DU-145 prostate = test system: DU-145 prostate
HCC-2998 colon = test system: HCC-2998 colon
PC-3 prostate = test system: PC-3 prostate
SK-MEL-2 melanoma = test system: SK-MEL-2 melanoma
786-0 renal = test system: 786-0 renal
U251 CNS = test system: U251 CNS
NCI/ADR-RES ovarian = test system: NCI/ADR-RES ovarian
IGROV1 ovarian = test system: IGROV1 ovarian
UACC-257 melanoma = test system: UACC-257 melanoma
COLO 205 colon = test system: COLO 205 colon
HS 578T breast = test system: HS 578T breast
MCF7 breast = test system: MCF7 breast
OVCAR-8 ovarian = test system: OVCAR-8 ovarian
CAKI-1 renal = test system: CAKI-1 renal
MALME-3M melanoma = test system: MALME-3M melanoma
A549 NSCLC = test system: A549 NSCLC
SF-268 CNS = test system: SF-268 CNS
KM12 colon = test system: KM12 colon
SW-620 colon = test system: SW-620 colon
NCI-H23 lung = test system: NCI-H23 lung
TK-10 renal = test system: TK-10 renal
RPMI-8226 leukemia = test system: RPMI-8226 leukemia
NCI-H522 lung = test system: NCI-H522 lung
HCT-116 colon = test system: HCT-116 colon
MDA-MB-231 breast = test system: MDA-MB-231 breast
HT29 colon = test system: HT29 colon
SF-295 CNS = test system: SF-295 CNS
MDA-MB-435 = test system: MDA-MB-435
K-562 leukemia = test system: K-562 leukemia
T-47D breast = test system: T-47D breast
SNB-75 CNS = test system: SNB-75 CNS
UO-31 renal = test system: UO-31 renal
SF-539 CNS = test system: SF-539 CNS
HOP-62 NSCLC = test system: HOP-62 NSCLC
SK-OV-3 ovarian = test system: SK-OV-3 ovarian
SK-MEL-28 melanoma = test system: SK-MEL-28 melanoma
RXF 393 renal = test system: RXF 393 renal
CCRF-CEM leukemia = test system: CCRF-CEM leukemia
ACHN renal = test system: ACHN renal
SK-MEL-5 melanoma = test system: SK-MEL-5 melanoma
NCI-H226 lung = test system: NCI-H226 lung
SN12C renal = test system: SN12C renal
HOP-92 NSCLC = test system: HOP-92 NSCLC
M14 melanoma = test system: M14 melanoma
OVCAR-3 ovarian = test system: OVCAR-3 ovarian
HCT-15 colon = test system: HCT-15 colon
LOX IMVI melanoma = test system: LOX IMVI melanoma
OVCAR-4 ovarian = test system: OVCAR-4 ovarian
EKVX NSCLC = test system: EKVX NSCLC
A498 renal = test system: A498 renal
SNB-19 CNS = test system: SNB-19 CNS
UACC-62 melanoma = test system: UACC-62 melanoma
NCI-H460 lung = test system: NCI-H460 lung
SR leukemia = test system: SR leukemia

## CC1CN=C(c2cccc(-c3ccc(-c4ccccc4)o3)c2)N1 (centres undefined)
BT-549 breast
  GI50: 10.5 µM
  TGI: 22.5 µM
OVCAR-5 ovarian
  GI50: 2.11 µM
  TGI: 5.41 µM
HL-60(TB) leukemia
  GI50: 2.28 µM
  TGI: 4.7 µM
DU-145 prostate
  GI50: 4.05 µM
  TGI: 15.8 µM
HCC-2998 colon
  GI50: 1.95 µM
  TGI: 3.65 µM
PC-3 prostate
  GI50: 2.04 µM
  TGI: 5.17 µM
SK-MEL-2 melanoma
  GI50: 1.74 µM
  TGI: 3.57 µM
786-0 renal
  GI50: 1.84 µM
  TGI: 3.8 µM
U251 CNS
  GI50: 2.47 µM
  TGI: 5.88 µM
NCI/ADR-RES ovarian
  GI50: 3.57 µM
  TGI: 25.9 µM
IGROV1 ovarian
  GI50: 2.08 µM
  TGI: 5.14 µM
UACC-257 melanoma
  GI50: 2.31 µM
  TGI: 4.62 µM
COLO 205 colon
  GI50: 1.61 µM
  TGI: 3.25 µM
HS 578T breast
  GI50: 2.57 µM
  TGI: 7.26 µM
MCF7 breast
  GI50: 1.71 µM
  TGI: 3.59 µM
OVCAR-8 ovarian
  GI50: 5.98 µM
  TGI: 23.2 µM
CAKI-1 renal
  GI50: 2.55 µM
  TGI: 9.19 µM
MALME-3M melanoma
  GI50: 1.82 µM
  TGI: 3.63 µM
A549 NSCLC
  GI50: 3.68 µM
  TGI: 11.2 µM
SF-268 CNS
  GI50: 1.83 µM
  TGI: 3.78 µM
KM12 colon
  GI50: 2.66 µM
  TGI: 7.92 µM
SW-620 colon
  GI50: 1.85 µM
  TGI: 3.69 µM
NCI-H23 lung
  GI50: 2.97 µM
  TGI: 12.5 µM
TK-10 renal
  GI50: 4.04 µM
  TGI: 14.4 µM
RPMI-8226 leukemia
  GI50: 2.43 µM
  TGI: 7.05 µM
NCI-H522 lung
  GI50: 1.67 µM
  TGI: 3.65 µM
HCT-116 colon
  GI50: 1.81 µM
  TGI: 3.69 µM
MDA-MB-231 breast
  GI50: 2.2 µM
  TGI: 4.49 µM
HT29 colon
  GI50: 2.39 µM
  TGI: 4.93 µM
SF-295 CNS
  GI50: 1.81 µM
  TGI: 3.84 µM
MDA-MB-435
  GI50: 1.61 µM
  TGI: 2.99 µM
K-562 leukemia
  GI50: 1.72 µM
  TGI: 3.91 µM
T-47D breast
  GI50: 1.92 µM
  TGI: 5.05 µM
SNB-75 CNS
  GI50: 1.47 µM
  TGI: 2.84 µM
UO-31 renal
  GI50: 1.62 µM
  TGI: 3.32 µM
SF-539 CNS
  GI50: 1.76 µM
  TGI: 3.42 µM
HOP-62 NSCLC
  GI50: 2.6 µM
  TGI: 6.37 µM
SK-OV-3 ovarian
  GI50: 4.2 µM
  TGI: 14.8 µM
SK-MEL-28 melanoma
  GI50: 1.81 µM
  TGI: 4.02 µM
RXF 393 renal
  GI50: 1.72 µM
  TGI: 3.36 µM
CCRF-CEM leukemia
  GI50: 2.44 µM
  TGI: 6.78 µM
ACHN renal
  GI50: 1.85 µM
  TGI: 3.89 µM
SK-MEL-5 melanoma
  GI50: 1.71 µM
  TGI: 3.11 µM
NCI-H226 lung
  GI50: 14.3 µM
  TGI: 39.4 µM
SN12C renal
  GI50: 3.59 µM
  TGI: 15.4 µM
HOP-92 NSCLC
  GI50: 2.13 µM
  TGI: 5.67 µM
M14 melanoma
  GI50: 2.23 µM
  TGI: 5.63 µM
OVCAR-3 ovarian
  GI50: 3.47 µM
  TGI: 13.7 µM
HCT-15 colon
  GI50: 1.66 µM
  TGI: 3.47 µM
LOX IMVI melanoma
  GI50: 1.73 µM
  TGI: 3.22 µM
OVCAR-4 ovarian
  GI50: 3.01 µM
  TGI: 19.5 µM
EKVX NSCLC
  GI50: 4.35 µM
  TGI: 18.9 µM
A498 renal
  GI50: 2.74 µM
  TGI: 10.6 µM
SNB-19 CNS
  GI50: 2.29 µM
  TGI: 5.47 µM
UACC-62 melanoma
  GI50: 1.94 µM
  TGI: 4.06 µM
NCI-H460 lung
  GI50: 1.83 µM
  TGI: 4.24 µM
SR leukemia
  GI50: 1.86 µM
  TGI: 5.32 µM
